Measurements: US9125768B2, “Hygiene tissue comprising a microbe-inhibiting composition” (SCA HYGIENE PRODUCTS AB, priority 2006, dated 2015)

Tests used:
Candida albicans = assay: Test 3: growth of Candida albicans in extracellular product of Ess-1 combined with additive, visual turbidity; assay type: cell-based; details: additive 50 mM combined with supernatant from Ess-1, pH adjusted to pKa of the acid, 20 hours 37° C.
Method: Ess-1 was grown to stationary phase in dMRSs broth (MRS broth without addition of sodium acetate). The bacterial culture was centrifuged to pellet the cells and sterile filtered using a 0,22 μm filter (MILLIPORE filter, Bedford, USA) whereupon the supernatant comprising the extracellular product was obtained. […] Wells containing strong growth of Candida in pure dMRSs-broth was graduated as five, while wells with no visual growth were graduated as zero.

[1] = tested on: Candida albicans (C. albicans 702); assay: Test 1: growth of Candida albicans in extracellular product of LB 931 with additives, micro titre plate, visual turbidity; assay type: cell-based; details: additive 50 mM in combination with extracellular product of LB 931, pH 3.4±0.2, 37° C. 24 hrs
Method: The purpose of this test was to determine whether selected additives affect the growth of Candida albicans and if an improved growth inhibition can be achieved when they are added to the extracellular products of Lactobacillus plantarum, LB 931. The additives used in this test were ascorbic acid, citric acid, phenylalanine, acetic acid, propionic acid and sodium propionate.
A clinical isolate of Candida albicans (designated C. albicans 702) was used as test strain. It was isolated from the vagina of a person with vaginal candidiasis.
As control pure dMRSs broth (MRS broth without addition of sodium acetate) was used. A specified volume was transferred to wells of a micro titre plate and was let to air dry (45° C. minimum of 20 hrs).
Cultures of LB 931 grown in dMRSs broth were centrifuged to pellet the cells and sterile filtered using a 0,22 μm filter (MILLIPORE filter, Bedford, USA) in order to obtain the LB 931 supernatant com prising the LB 931 extracell War product. […]
The test was blinded so that there could be no preconceived opinions colouring the results. The inhibition of Candida was evaluated and graduated, by two persons using a template, on a scale from five to zero based on visual observations of turbidity with a calculated mean value being presented. […]

| Structure (SMILES) | inhibition of Candida albicans (Candida albicans) | growth inhibiting effect on Candida (growth graded five to zero by turbidity) [1] |
| --- | --- | --- |
| O=C1O[C@H]([C@@H](O)CO)C(O)=C1O [ascorbic acid] | increased inhibition | – |
| CCC(=O)O [propionic acid] | – | no growth at all |
